The results in this text go back to paper PMC8968713, “Displacement of Native FXYD Protein From Na^+/K^+-ATPase With Novel FXYD Peptide Derivatives: Effects on Doxorubicin Cytotoxicity” (Frontiers in Oncology, 2022).

One data set concerns MCF-7 cells. The data set is described as follows: XTT cell viability, MCF-7 cells. The data set is classed as cell-based, human. The note with it: for IC50: Homo sapiens, MCF7, 48 h, 48 h, XTT, 5 experiments. How it is done: (§1) Human pancreatic cancer cells BxPC-3, Panc-1, non-transformed human mammary epithelial MCF-10A cells, and human breast cancer cells MCF-7 and MDA-MB-468 were obtained from the American Type Culture Collection (ATCC, Manassas, VA, USA). The cells were then cultured as previously described ([6], [9], [11]). All cells were used within 20 passages of thawing and were free of mycoplasma contamination as ascertained by mycoplasma PCR detection ([12]).
(§2) Cell metabolic activity was assayed as described ([14]) by estimating the reduction of XTT (2,3-bis(2-methoxy-4-nitro-5-sulfophenyl)-2H-tetrazolium-5-carboxyanilide), using a commercially available kit (Cell Signaling Technology, Danvers, MA, USA) according to the manufacturer’s instructions. Metabolic activity was used as a surrogate for viability. For each set of experimental groups, we performed 5 experiments with 4 replicates. Caspase-3-like activity is increased through a protease cascade during the early stage of apoptosis ([15]), and we measured activities of Caspase 3/7 (DEVDase) using the caspase fluorogenic substrate (Calbiochem, San Diego, CA, USA) as described ([9]).
(§3) Results are presented as mean ± standard deviation (SD). The IC50 values for Dox in cell viability studies were calculated by GraphPad Prism. Statistical comparisons were made with a Mann–Whitney test, ANOVA, and repeated-measure ANOVA with Geisser–Greenhouse epsilon correction. p < 0.05 was considered statistically significant.
(§4) We examined if displacement of WT FXYD3 from Na^+/K^+-ATPase is reflected in viability of cells exposed to FXYD3-pep SKSK with and without co-exposure to Dox for 48 h. The culture medium that contained FXYD3-pep SKSK and Dox was replaced with fresh medium every 24 h.
A general note: Formazan colour is commonly taken as a measure of viable cells.

For another data set, the system named is BxPC-3 cells. The data set is described as follows: XTT cell viability, BxPC-3 cells. As to conditions: Homo sapiens, BXPC-3, 48 h, 5 experiments. It is filed as cell-based. How it is done:
as §1, §2, §3, §4

The structures appear in SMILES notation. Like-named read-outs stand apart in the source and are kept apart here.

For the compound `C[C@@H]1O[C@@H](O[C@H]2C[C@@H](O)[C@]3(CO)[C@H]4[C@H](O)C[C@]5(C)[C@@H](C6=CC(=O)OC6)CC[C@]5(O)[C@@H]4CC[C@]3(O)C2)[C@H](O)[C@H](O)[C@H]1O` [ouabain], the “Effect of ouabain on Dox-induced cytotoxicity” value with MCF-7 cells (48-h co-exposure with 1 μM Dox, N = 5) was “modest augmentation of Dox-induced cytotoxicity decreased with an increase in ouabain concentration”. For the same compound, in the data set on MCF-7 cells (48-h exposure, ouabain 25-150 nM, N = 5), the “Effect of ouabain alone on cell viability” value is reported as “reduced cell viability in a concentration-dependent manner”.

In general, IC50 refers to the concentration needed to halve the response being measured. With `COc1cccc2c1C(=O)c1c(O)c3c(c(O)c1C2=O)C[C@@](O)(C(=O)CO)C[C@@H]3O[C@H]1C[C@H](N)[C@H](O)[C@H](C)O1` [Dox, doxorubicin], the IC50 with BxPC-3 cells (Dox alone (no peptide)) was about 1740 nM; in the data set on BxPC-3 cells (co-exposure to 1 μM FXYD3-pep SKSK, read-out: IC50 for Dox, cell viability), about 400 nM; with BxPC-3 cells (co-exposure to 2 μM FXYD3-pep SKSK, read-out: IC50 for Dox, cell viability), about 300 nM; with MCF-7 cells (Dox alone (no peptide)), about 4300 nM; with MCF-7 cells (co-exposure to 2 µM FXYD3-pep SKSK, read-out: IC50 for Dox, cell viability), about 500 nM.
